# Experimental data as given in patent US7179806B2, “Δ1-pyrrolines used as pesticides” (Bayer Cropscience AG, priority 2000, dated 2007).
# Assay: log P determination by HPLC (reversed-phase C18, EEC Directive 79/831 Annex V.A8)
# Type: physicochemical
# Settings: reversed-phase C18 HPLC column, pH 2.3, pH 2.3, 0.1% aqueous phosphoric acid/acetonitrile gradient, 43° C
# Description: Mobile phases for determination in the acidic range: 0.1% aqueous phosphoric acid, acetonitrile; linear gradient from 10% acetonitrile to 90% acetonitrile.
row,Compound,chromatographic logP
1,Fc1cccc(F)c1C1=NC(c2ccc(-c3cnc(Cc4ccccc4)nc3)cc2)CC1 (stereo not shown) [Example 91],2.79
2,Fc1cccc(F)c1C1=NC(c2ccc(-c3cnc(SCSC(F)(F)F)nc3)cc2)CC1 (stereo not shown) [Example 92],4
3,FC(F)Sc1ncc(-c2ccc(C3CCC(c4ccccc4Cl)=N3)cc2)cn1 (stereo not shown) [Example 93],3.38
4,Fc1cccc(F)c1C1=N[C@@H](c2ccc(-c3ccc(C(F)(F)F)cn3)cc2)CC1 [Example 94],3.28
5,Fc1cccc(F)c1C1=NC(c2ccc(-c3cnc(OC(C(F)(F)F)C(F)(F)F)nc3)cc2)CC1 (stereo not shown) [Example 95],3.85
6,CN1CCN(c2ccc(-c3ccc(C4CCC(c5c(F)cccc5F)=N4)cc3)cn2)CC1 (stereo not shown) [Example 96],1.04
7,CC1CC(C)CN(c2ccc(-c3ccc(C4CCC(c5c(F)cccc5F)=N4)cc3)cn2)C1 (stereo not shown) [Example 97],2.1
8,CCCCCCN(C)c1ncc(-c2ccc(C3CCC(c4c(F)cccc4F)=N3)cc2)cn1 (stereo not shown) [Example 99],4.94
9,CCCOc1ncc(-c2ccc(C3CCC(c4c(F)cccc4F)=N3)cc2)cn1 (stereo not shown) [Example 100],2.72
10,CCN1CCN(c2ncc(-c3ccc(C4CCC(c5c(F)cccc5F)=N4)cc3)cn2)CC1 (stereo not shown) [Example 101],1.24
11,CCOc1ncc(-c2ccc(C3CCC(c4c(F)cccc4F)=N3)cc2)cn1 (stereo not shown) [Example 102],2.21
12,CCC1CC(CC)CN(c2ncc(-c3ccc(C4CCC(c5c(F)cccc5F)=N4)cc3)cn2)C1 (stereo not shown) [Example 103],5.82
13,CC1CN(c2ncc(-c3ccc(C4CCC(c5c(F)cccc5F)=N4)cc3)cn2)CC(C)O1 (stereo not shown) [Example 104],3
14,Fc1cccc(F)c1C1=NC(c2ccc(-c3cnc(N4CCCCCC4)nc3)cc2)CC1 (stereo not shown) [Example 105],3.41
15,O=C1CCCCCN1c1ccc(-c2ccc(C3CCC(c4c(F)cccc4F)=N3)cc2)cn1 (stereo not shown) [Example 106],2.25
16,COCCN(CCOC)c1ncc(-c2ccc(C3CCC(c4c(F)cccc4F)=N3)cc2)cn1 (stereo not shown) [Example 107],2.48
17,C=CCN(CC=C)c1ncc(-c2ccc(C3CCC(c4c(F)cccc4F)=N3)cc2)cn1 (stereo not shown) [Example 108],3.74
18,Fc1cccc(F)c1C1=NC(c2ccc(-c3ccc(N4CCCCCC4)nc3)cc2)CC1 (stereo not shown) [Example 109],1.65
19,Fc1cccc(F)c1C1=NC(c2ccc(-c3ccc(Br)cn3)cc2)CC1 (stereo not shown) [Example 110],3.07
20,Fc1cccc(F)c1C1=NC(c2ccc(-c3ccc(N4CCCCC4)nc3)cc2)CC1 (stereo not shown) [Example 111],1.49
21,CCCC(C)N1CCN(c2ncc(-c3ccc(C4CCC(c5c(F)cccc5F)=N4)cc3)cn2)CC1 (stereo not shown) [Example 112],1.65

row,Compound,chromatographic logP
1,CCC(C)N1CCN(c2ccc(-c3ccc(C4CCC(c5c(F)cccc5F)=N4)cc3)cn2)CC1 (stereo not shown) [Example 113],1.3
2,Fc1cccc(F)c1C1=NC(c2ccc(-c3ccc(-n4ccnc4)nc3)cc2)CC1 (stereo not shown) [Example 114],1.28
3,Cc1ccc(N2CCN(c3ncc(-c4ccc(C5CCC(c6c(F)cccc6F)=N5)cc4)cn3)CC2)cc1C (stereo not shown) [Example 116],3.88
4,Fc1cccc(F)c1C1=NC(c2ccc(-c3cnc(N4CCN(c5ncccn5)CC4)nc3)cc2)CC1 (stereo not shown) [Example 117],2.7
5,Fc1cccc(F)c1C1=NC(c2ccc(-c3cnc(-n4cncn4)nc3)cc2)CC1 (stereo not shown) [Example 118],1.55
6,CC(C)(C)C1CCN(c2ncc(-c3ccc(C4CCC(c5c(F)cccc5F)=N4)cc3)cn2)CC1 (stereo not shown) [Example 119],5.47
7,CC1(C)CCN(c2ncc(-c3ccc(C4CCC(c5c(F)cccc5F)=N4)cc3)cn2)CC1 (stereo not shown) [Example 120],4.38
8,CCC1CCN(c2ncc(-c3ccc(C4CCC(c5c(F)cccc5F)=N4)cc3)cn2)CC1 (stereo not shown) [Example 121],4.58
9,Fc1cccc(F)c1C1=NC(c2ccc(-c3cnc(N4CCC(C(F)(F)F)CC4)nc3)cc2)CC1 (stereo not shown) [Example 122],3.84
10,Fc1cccc(F)c1C1=NC(c2ccc(-c3cnc(N4CCN(CC5CCCCC5)CC4)nc3)cc2)CC1 (stereo not shown) [Example 123],2.12
11,Fc1cccc(F)c1C1=NC(c2ccc(-c3cnc(-n4ccnc4)nc3)cc2)CC1 (stereo not shown) [Example 124],1.25
12,CCOCCN1CCN(c2ncc(-c3ccc(C4CCC(c5c(F)cccc5F)=N4)cc3)cn2)CC1 (stereo not shown) [Example 125],1.47
13,COCCCN1CCN(c2ncc(-c3ccc(C4CCC(c5c(F)cccc5F)=N4)cc3)cn2)CC1 (stereo not shown) [Example 126],1.38
14,Fc1cccc(F)c1C1=NC(c2ccc(-c3ccc(OC(F)F)nc3)cc2)CC1 (stereo not shown) [Example 127],3.13
15,Fc1cccc(F)c1C1=NC(c2ccc(-c3ccc(N4CCN(CC5CCCCC5)CC4)nc3)cc2)CC1 (stereo not shown) [Example 128],6.7
16,N#Cc1ccc(N2CCN(c3ccc(-c4ccc(C5CCC(c6c(F)cccc6F)=N5)cc4)cn3)CC2)cc1 (stereo not shown) [Example 129],2.29
17,Fc1cccc(F)c1C1=NC(c2ccc(-c3cnc(-n4cccn4)nc3)cc2)CC1 (stereo not shown) [Example 130],1.98
18,N#CCCN1CCN(c2ncc(-c3ccc(C4CCC(c5c(F)cccc5F)=N4)cc3)cn2)CC1 (stereo not shown) [Example 131],1.69
19,CN(C)CCN1CCN(c2ncc(-c3ccc(C4CCC(c5c(F)cccc5F)=N4)cc3)cn2)CC1 (stereo not shown) [Example 132],3
20,N#Cc1ccccc1N1CCN(c2ccc(-c3ccc(C4CCC(c5c(F)cccc5F)=N4)cc3)cn2)CC1 (stereo not shown) [Example 133],2.3
21,Cc1cccc(N2CCN(c3ncc(-c4ccc(C5CCC(c6c(F)cccc6F)=N5)cc4)cn3)CC2)c1C (stereo not shown) [Example 134],5.78

# Further lines, results first:
row,chromatographic logP,Compound
1,2.13,CCC(CC)N1CCN(c2ncc(-c3ccc(C4CCC(c5c(F)cccc5F)=N4)cc3)cn2)CC1 (stereo not shown) [Example 135]
2,4.83,Fc1cccc(F)c1C1=NC(c2ccc(-c3cnc(N4CCN(c5cccc(Cl)c5)CC4)nc3)cc2)CC1 (stereo not shown) [Example 136]
3,3.03,C[C@@H]1CN(c2ncc(-c3ccc(C4CCC(c5c(F)cccc5F)=N4)cc3)cn2)C[C@H](C)O1 (stereo partly shown) [Example 137]
4,1.39,CCC(CC)N1CCN(c2ccc(-c3ccc(C4CCC(c5c(F)cccc5F)=N4)cc3)cn2)CC1 (stereo not shown) [Example 138]
5,3.3,CC(C)(C)c1ccc(CN2CCN(c3ncc(-c4ccc(C5CCC(c6c(F)cccc6F)=N5)cc4)cn3)CC2)cc1 (stereo not shown) [Example 139]
6,3.13,Fc1cccc(F)c1C1=NC(c2ccc(-c3cnc(N4CCSCC4)nc3)cc2)CC1 (stereo not shown) [Example 140]
7,2.28,Cc1ccc(CN2CCN(c3ncc(-c4ccc(C5CCC(c6c(F)cccc6F)=N5)cc4)cn3)CC2)cc1 (stereo not shown) [Example 141]
8,2.22,COc1ccc(CN2CCN(c3ncc(-c4ccc(C5CCC(c6c(F)cccc6F)=N5)cc4)cn3)CC2)cc1 (stereo not shown) [Example 142]
9,2.25,Fc1cccc(F)c1C1=NC(c2ccc(-c3cnc(N4CCN(Cc5ccc(Cl)cc5)CC4)nc3)cc2)CC1 (stereo not shown) [Example 143]
10,4.7,Fc1cccc(F)c1C1=NC(c2ccc(-c3cnc(N4CCN(Cc5ccc(C(F)(F)F)cc5)CC4)nc3)cc2)CC1 (stereo not shown) [Example 144]
11,1.78,Fc1ccc(CN2CCN(c3ncc(-c4ccc(C5CCC(c6c(F)cccc6F)=N5)cc4)cn3)CC2)cc1 (stereo not shown) [Example 145]
12,3.78,N#Cc1ccccc1N1CCN(c2ncc(-c3ccc(C4CCC(c5c(F)cccc5F)=N4)cc3)cn2)CC1 (stereo not shown) [Example 146]
13,1.48,CN1CCN(c2ncc(-c3ccc(C4CCC(c5c(F)cccc5F)=N4)cc3)cn2)CC1 (stereo not shown) [Example 147]
14,1.49,COCCN1CCN(c2ncc(-c3ccc(C4CCC(c5c(F)cccc5F)=N4)cc3)cn2)CC1 (stereo not shown) [Example 148]
15,3.95,Fc1ccc(N2CCN(c3ncc(-c4ccc(C5CCC(c6c(F)cccc6F)=N5)cc4)cn3)CC2)cc1 (stereo not shown) [Example 149]
16,3.28,N#Cc1cccnc1N1CCN(c2ncc(-c3ccc(C4CCC(c5c(F)cccc5F)=N4)cc3)cn2)CC1 (stereo not shown) [Example 150]

row,chromatographic logP,Compound
1,1.92,Fc1cccc(F)c1C1=NC(c2ccc(-c3cnc(N4CCN(Cc5ccccc5)CC4)nc3)cc2)CC1 (stereo not shown) [Example 152]
2,3.1,CCCCCCNc1ncc(-c2ccc(C3CCC(c4c(F)cccc4F)=N3)cc2)cn1 (stereo not shown) [Example 153]
3,2.9,CCCCCNc1ncc(-c2ccc(C3CCC(c4c(F)cccc4F)=N3)cc2)cn1 (stereo not shown) [Example 154]
4,2.02,CCCCCN1CCN(c2ncc(-c3ccc(C4CCC(c5c(F)cccc5F)=N4)cc3)cn2)CC1 (stereo not shown) [Example 155]
5,3.63,Cc1cccc(N2CCN(c3ccc(-c4ccc(C5CCC(c6c(F)cccc6F)=N5)cc4)cn3)CC2)c1C (stereo not shown) [Example 157]
6,1.65,CCC(C)N1CCN(c2ncc(-c3ccc(C4CCC(c5c(F)cccc5F)=N4)cc3)cn2)CC1 (stereo not shown) [Example 158]
7,2.06,Fc1cccc(F)c1C1=NC(c2ccc(-c3cnc(N4CCN(c5ccccn5)CC4)nc3)cc2)CC1 (stereo not shown) [Example 159]
8,1.65,Fc1cccc(F)c1C1=NC(c2ccc(-c3cnc(NC4CC4)nc3)cc2)CC1 (stereo not shown) [Example 160]
9,2.58,Fc1cccc(F)c1C1=NC(c2ccc(-c3cnc(NC4CCCC4)nc3)cc2)CC1 (stereo not shown) [Example 161]
10,3,Fc1cccc(F)c1C1=NC(c2ccc(-c3cnc(NC4CCCCC4)nc3)cc2)CC1 (stereo not shown) [Example 162]
11,3.58,CCCN(CC)c1ncc(-c2ccc([C@H]3CCC(c4c(F)cccc4F)=N3)cc2)cn1 [Example 163]
12,1.27,Fc1cccc(F)c1C1=N[C@@H](c2ccc(-c3ccc(N4CCOCC4)nc3)cc2)CC1 [Example 164]
13,3.17,Fc1cccc(F)c1C1=NC(c2ccc(-c3ccc(N4CCN(c5cccc(Cl)c5)CC4)nc3)cc2)CC1 (stereo not shown) [Example 165]
14,3.58,Fc1cccc(F)c1C1=NC(c2ccc(-c3cnc(-n4cccc4)nc3)cc2)CC1 (stereo not shown) [Example 166]
15,1.89,O=C1CCCCCN1c1ncc(-c2ccc(C3CCC(c4c(F)cccc4F)=N3)cc2)cn1 (stereo not shown) [Example 167]
